For test [1], the target named is Neuronal acetylcholine receptor; alpha4/beta2 (Rattus norvegicus, UniProt P09483+P12390). The test is described as follows: Displacement of [3H]-epibatidine from alpha4beta2 nAChR in rat cortex hippocampus. It counts as tissue-based. (In general: In a radioligand displacement assay an active substance lowers the binding of a labelled ligand.)
In test [2] the target is T1, Muscarinic acetylcholine receptor M5 (Homo sapiens, UniProt P08912).
T1 sequence (P08912 whole entry): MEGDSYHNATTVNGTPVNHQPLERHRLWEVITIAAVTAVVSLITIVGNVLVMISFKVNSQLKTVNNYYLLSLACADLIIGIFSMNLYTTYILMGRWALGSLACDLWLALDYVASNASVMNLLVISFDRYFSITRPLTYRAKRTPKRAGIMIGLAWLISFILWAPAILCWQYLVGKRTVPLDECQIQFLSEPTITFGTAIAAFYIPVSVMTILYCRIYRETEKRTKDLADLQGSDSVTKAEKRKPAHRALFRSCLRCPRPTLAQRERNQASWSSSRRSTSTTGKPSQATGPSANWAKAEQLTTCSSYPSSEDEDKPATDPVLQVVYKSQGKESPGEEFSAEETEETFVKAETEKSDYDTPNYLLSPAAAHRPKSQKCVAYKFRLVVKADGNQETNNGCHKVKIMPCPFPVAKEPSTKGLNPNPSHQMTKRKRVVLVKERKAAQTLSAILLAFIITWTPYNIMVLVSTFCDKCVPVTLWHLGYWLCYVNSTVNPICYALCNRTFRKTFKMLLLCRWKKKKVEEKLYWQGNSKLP
The test is described as follows: Displacement of [3H]NMS from human muscarinic M5 receptor expressed in CHO cells.

Test [3] addresses T2, Muscarinic acetylcholine receptor M4 (Homo sapiens, UniProt P08173).
T2 sequence (P08173 whole entry): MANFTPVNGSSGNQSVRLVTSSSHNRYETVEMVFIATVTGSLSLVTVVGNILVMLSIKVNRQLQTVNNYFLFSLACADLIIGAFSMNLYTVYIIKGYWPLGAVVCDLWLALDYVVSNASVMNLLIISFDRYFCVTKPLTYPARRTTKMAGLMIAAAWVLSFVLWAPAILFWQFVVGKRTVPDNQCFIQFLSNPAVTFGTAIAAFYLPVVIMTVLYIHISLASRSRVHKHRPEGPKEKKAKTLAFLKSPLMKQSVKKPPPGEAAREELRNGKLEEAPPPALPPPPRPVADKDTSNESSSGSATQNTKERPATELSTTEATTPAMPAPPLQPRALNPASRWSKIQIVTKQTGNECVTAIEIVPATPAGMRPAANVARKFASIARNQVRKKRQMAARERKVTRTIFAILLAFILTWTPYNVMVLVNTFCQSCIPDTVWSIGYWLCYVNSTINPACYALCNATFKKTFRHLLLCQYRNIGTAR
Description: Displacement of [3H]NMS from human muscarinic M4 receptor expressed in CHO cells.

Test [4] concerns the target Muscarinic acetylcholine receptor M3 (Homo sapiens, UniProt P20309). The test is described as follows: Displacement of [3H]NMS from human muscarinic M3 receptor expressed in CHO cells.
The target of test [5] is T3, Muscarinic acetylcholine receptor M2 (Homo sapiens, UniProt P08172).
T3 sequence (P08172 whole entry): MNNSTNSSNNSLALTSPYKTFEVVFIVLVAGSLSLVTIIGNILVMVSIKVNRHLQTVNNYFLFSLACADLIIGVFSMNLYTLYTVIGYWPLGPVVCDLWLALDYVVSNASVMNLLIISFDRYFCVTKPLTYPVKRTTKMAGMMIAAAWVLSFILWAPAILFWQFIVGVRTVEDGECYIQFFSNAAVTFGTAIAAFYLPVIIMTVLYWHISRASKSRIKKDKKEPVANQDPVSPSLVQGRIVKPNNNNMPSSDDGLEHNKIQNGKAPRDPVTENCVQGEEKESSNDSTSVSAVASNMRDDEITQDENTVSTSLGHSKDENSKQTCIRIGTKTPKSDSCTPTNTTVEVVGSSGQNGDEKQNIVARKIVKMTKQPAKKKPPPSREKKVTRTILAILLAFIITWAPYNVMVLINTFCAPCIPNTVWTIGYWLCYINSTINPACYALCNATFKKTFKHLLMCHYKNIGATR
The test is described as follows: Displacement of [3H]NMS from human muscarinic M2 receptor expressed in CHO cells.

The target of test [6] is Neuronal acetylcholine receptor subunit alpha-7 (Rattus norvegicus, UniProt Q05941). The test is described as follows: Displacement of [125I]-alpha-bungarotoxin from alpha7 nAChR in rat hippocampus membranes. The test is classed as cell membranes, Membrane.
Chain of Neuronal acetylcholine receptor subunit alpha-7 (Rattus norvegicus, UniProt Q05941) (Q05941 whole entry): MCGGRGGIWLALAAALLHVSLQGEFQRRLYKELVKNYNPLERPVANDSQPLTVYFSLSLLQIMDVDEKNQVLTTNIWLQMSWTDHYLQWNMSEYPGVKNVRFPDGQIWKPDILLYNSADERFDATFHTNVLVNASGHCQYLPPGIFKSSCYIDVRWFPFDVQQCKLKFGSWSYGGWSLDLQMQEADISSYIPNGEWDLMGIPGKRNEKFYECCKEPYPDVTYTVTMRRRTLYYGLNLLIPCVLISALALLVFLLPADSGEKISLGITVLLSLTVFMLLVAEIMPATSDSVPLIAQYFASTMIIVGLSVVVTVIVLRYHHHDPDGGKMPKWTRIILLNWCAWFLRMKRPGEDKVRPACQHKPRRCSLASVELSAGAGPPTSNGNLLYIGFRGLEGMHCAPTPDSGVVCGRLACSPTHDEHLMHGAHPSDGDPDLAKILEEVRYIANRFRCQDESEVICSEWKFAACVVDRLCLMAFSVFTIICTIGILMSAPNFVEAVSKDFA
The target in test [7] is T4, Muscarinic acetylcholine receptor M1 (Homo sapiens, UniProt P11229).
T4 sequence (P11229 whole entry): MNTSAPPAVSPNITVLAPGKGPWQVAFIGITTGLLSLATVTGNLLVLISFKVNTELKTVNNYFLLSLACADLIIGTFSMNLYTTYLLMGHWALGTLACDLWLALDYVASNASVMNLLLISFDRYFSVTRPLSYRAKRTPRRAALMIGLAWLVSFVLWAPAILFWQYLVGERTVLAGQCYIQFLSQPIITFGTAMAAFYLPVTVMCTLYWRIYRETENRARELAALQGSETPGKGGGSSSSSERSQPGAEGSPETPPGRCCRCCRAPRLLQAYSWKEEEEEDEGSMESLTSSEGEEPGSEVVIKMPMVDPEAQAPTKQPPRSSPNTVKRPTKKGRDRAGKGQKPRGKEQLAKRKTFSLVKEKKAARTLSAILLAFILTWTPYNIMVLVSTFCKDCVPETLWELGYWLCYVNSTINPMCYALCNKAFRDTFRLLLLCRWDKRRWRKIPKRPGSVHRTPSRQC
Description: Displacement of [3H]NMS from human muscarinic M1 receptor expressed in CHO cells.

The target in test [8] is Neuronal acetylcholine receptor subunit alpha-7 (Homo sapiens, UniProt P36544). The test is described as follows: Binding affinity to alpha7 nAChR (unknown origin).
Chain of Neuronal acetylcholine receptor subunit alpha-7 (Homo sapiens, UniProt P36544) (P36544 whole entry): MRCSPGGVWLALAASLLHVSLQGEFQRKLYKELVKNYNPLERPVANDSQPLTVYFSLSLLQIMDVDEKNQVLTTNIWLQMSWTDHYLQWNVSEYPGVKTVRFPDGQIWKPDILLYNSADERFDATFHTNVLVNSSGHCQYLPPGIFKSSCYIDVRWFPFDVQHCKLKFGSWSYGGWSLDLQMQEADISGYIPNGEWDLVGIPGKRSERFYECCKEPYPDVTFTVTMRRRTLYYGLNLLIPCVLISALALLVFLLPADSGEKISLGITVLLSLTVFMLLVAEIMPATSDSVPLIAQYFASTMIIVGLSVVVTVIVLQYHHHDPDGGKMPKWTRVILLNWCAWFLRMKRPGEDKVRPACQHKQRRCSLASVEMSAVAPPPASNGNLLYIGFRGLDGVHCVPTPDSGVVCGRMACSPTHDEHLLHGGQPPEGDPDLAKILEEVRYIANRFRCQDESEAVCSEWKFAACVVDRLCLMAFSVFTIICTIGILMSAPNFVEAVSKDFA
The target in test [9] is Muscarinic acetylcholine receptor. The test is described as follows: Binding affinity to muscarinic M1/M5 receptor (unknown origin). The test is classed as protein assay, Homo sapiens.
Test [10] concerns the target Neuronal acetylcholine receptor; alpha4/beta2 (Homo sapiens, UniProt P17787+P43681). Description: Binding affinity to alpha4beta2 nAChR (unknown origin). It counts as protein-complex assay.

The source of these data is ChEMBL document CHEMBL2439979 (Bioorg Med Chem Lett, 2013).

SMILES strings stand for the structures. Where only a bound is given, the exact number is not on record here.

Chain of Neuronal acetylcholine receptor; alpha4/beta2 (Homo sapiens, UniProt P17787+P43681) (P17787 whole entry): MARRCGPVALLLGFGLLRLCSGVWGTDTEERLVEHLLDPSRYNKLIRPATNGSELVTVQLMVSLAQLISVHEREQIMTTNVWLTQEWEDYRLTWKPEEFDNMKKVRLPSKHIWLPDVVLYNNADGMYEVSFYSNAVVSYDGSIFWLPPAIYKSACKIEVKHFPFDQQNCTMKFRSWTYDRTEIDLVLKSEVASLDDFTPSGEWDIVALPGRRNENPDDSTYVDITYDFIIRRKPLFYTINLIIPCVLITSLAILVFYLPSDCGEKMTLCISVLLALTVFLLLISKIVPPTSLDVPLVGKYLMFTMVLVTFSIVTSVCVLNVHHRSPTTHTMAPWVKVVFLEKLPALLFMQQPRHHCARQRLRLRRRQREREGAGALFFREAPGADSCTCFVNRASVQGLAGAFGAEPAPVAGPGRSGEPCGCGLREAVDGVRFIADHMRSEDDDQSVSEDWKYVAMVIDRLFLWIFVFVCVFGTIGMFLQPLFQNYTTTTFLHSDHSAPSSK
Chain of Neuronal acetylcholine receptor; alpha4/beta2 (Homo sapiens, UniProt P17787+P43681) (P43681 whole entry): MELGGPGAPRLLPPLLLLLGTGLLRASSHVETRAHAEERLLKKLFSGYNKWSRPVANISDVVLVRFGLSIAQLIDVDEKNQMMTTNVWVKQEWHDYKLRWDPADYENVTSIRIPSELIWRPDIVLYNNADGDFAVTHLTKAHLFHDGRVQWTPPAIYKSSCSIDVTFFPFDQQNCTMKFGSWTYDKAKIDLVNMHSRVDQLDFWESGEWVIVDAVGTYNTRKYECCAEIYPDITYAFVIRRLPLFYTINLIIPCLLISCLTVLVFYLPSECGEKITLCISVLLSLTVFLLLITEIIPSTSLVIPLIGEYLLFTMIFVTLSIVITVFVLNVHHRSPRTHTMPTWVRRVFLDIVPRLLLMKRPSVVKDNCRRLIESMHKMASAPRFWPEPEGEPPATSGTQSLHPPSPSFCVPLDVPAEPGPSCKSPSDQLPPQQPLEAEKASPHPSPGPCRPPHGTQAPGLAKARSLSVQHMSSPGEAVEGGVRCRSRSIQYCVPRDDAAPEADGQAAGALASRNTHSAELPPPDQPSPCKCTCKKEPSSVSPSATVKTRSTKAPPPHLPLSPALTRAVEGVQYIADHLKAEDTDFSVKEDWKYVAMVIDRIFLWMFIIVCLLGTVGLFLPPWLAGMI
Chain of Muscarinic acetylcholine receptor M3 (P20309 whole entry): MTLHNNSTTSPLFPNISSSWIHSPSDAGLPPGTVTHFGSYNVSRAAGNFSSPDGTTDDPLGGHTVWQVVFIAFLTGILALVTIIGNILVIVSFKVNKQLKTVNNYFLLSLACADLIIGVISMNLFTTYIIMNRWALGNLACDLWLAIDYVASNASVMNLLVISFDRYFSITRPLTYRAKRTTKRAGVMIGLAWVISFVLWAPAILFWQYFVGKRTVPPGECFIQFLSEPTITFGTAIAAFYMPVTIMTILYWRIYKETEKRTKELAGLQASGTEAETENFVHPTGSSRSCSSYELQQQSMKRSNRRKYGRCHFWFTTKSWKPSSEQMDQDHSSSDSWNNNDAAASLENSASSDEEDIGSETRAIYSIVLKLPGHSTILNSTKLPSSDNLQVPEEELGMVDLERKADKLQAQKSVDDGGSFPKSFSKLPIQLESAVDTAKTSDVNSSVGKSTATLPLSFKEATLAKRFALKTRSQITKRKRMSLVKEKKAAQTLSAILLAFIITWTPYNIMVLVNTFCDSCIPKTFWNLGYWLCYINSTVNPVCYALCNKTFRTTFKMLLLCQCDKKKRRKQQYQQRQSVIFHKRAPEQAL
Chain of Neuronal acetylcholine receptor; alpha4/beta2 (Rattus norvegicus, UniProt P09483+P12390) (P09483 whole entry): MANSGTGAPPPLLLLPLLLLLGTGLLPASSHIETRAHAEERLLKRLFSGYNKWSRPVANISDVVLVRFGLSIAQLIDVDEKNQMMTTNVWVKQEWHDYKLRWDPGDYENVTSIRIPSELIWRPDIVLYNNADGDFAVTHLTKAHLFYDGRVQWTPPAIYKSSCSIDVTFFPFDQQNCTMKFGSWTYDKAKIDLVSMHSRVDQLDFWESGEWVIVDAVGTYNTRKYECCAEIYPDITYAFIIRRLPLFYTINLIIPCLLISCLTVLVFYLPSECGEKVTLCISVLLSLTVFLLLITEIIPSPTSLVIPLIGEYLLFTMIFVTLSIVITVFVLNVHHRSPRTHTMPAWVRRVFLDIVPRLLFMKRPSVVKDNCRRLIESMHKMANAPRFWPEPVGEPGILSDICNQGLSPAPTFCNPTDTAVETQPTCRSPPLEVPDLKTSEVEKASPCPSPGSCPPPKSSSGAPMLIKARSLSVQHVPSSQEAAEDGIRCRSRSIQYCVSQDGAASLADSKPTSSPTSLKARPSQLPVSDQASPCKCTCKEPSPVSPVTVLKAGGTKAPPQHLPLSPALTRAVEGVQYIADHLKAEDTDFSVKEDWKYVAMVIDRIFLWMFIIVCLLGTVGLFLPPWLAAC
Chain of Neuronal acetylcholine receptor; alpha4/beta2 (Rattus norvegicus, UniProt P09483+P12390) (P12390 whole entry): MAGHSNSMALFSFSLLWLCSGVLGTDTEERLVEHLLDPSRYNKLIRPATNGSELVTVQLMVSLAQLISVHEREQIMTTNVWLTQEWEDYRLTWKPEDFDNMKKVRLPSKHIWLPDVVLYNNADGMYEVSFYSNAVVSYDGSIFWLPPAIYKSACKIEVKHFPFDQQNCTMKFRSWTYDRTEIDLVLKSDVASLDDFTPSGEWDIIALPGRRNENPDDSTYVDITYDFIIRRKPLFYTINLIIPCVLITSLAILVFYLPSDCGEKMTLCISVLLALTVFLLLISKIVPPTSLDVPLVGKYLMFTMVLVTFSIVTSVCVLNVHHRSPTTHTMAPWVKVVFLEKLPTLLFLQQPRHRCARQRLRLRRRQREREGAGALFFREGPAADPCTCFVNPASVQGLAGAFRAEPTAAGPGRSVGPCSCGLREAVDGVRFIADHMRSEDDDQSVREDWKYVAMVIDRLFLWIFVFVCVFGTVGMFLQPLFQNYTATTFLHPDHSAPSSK

The Ki is the dissociation constant of the complex between target and ligand, obtained from inhibition or displacement. Higher therefore signals a looser hold on the target. With `CN(C)C[C@H]1CN(C)C(=O)O1`, the Ki in test [1] is 2.2 µM; in test [2] it was greater than 100 µM; in test [3] it was greater than 100 µM; in [4], greater than 100 µM; in [5] it was greater than 100 µM; in [6] it was 158 µM. Moreover, the Ki in [7] was greater than 100 µM.
Turning to `CN1CCC[C@H]1[C@H]1CNC(=O)O1`, the Ki in test [2], in test [3], in [4], in test [5] and in [7] was greater than 100 µM throughout.
Regarding `CN1C[C@@H](C[N+](C)(C)C)OC1=O`, the Ki in test [1] is 3.61 µM; in [2], greater than 100 µM; in test [3], greater than 100 µM; in test [4] it was greater than 100 µM; in test [5], greater than 100 µM; in test [6], 30 µM. Moreover, the Ki in test [7] is greater than 100 µM.
For `CN(C)C[C@H]1CNC(=O)O1`, the Ki in [1] was 0.45 µM; in [2], greater than 100 µM; in test [3], greater than 100 µM; in [4], greater than 100 µM; in [5], greater than 100 µM; in test [6] it was 41 µM. In test [7], the inhibition constant (Ki) was greater than 100 µM.
On to `C[N+](C)(C)C[C@@H]1CNC(=O)O1`, for which the Ki in [1] was 0.429 µM; in [2] it was greater than 100 µM; in test [3], greater than 100 µM; in [4] it was greater than 100 µM; in test [5], greater than 100 µM; in [6] it was 45 µM. For the same compound, in [7], the inhibition constant Ki is greater than 100 µM.
As to `CN(C)C[C@@H]1CN(C)C(=O)O1`, the Ki was 2.66 µM in test [1]; greater than 100 µM in test [2]; greater than 100 µM in test [3]; greater than 100 µM in test [4]; greater than 100 µM in [5]; 449 µM in test [6]. For the same compound, in test [7], the Ki is greater than 100 µM.
Take `CN1CCC[C@H]1[C@@H]1CNC(=O)O1`: the Ki in test [2], in [3], in [4], in test [5] and in [7] was greater than 100 µM in each case.
As for `CN(C)C[C@@H]1CNC(=O)O1`, the Ki was 0.452 µM in [1]; greater than 100 µM in test [2]; greater than 100 µM in test [3]; greater than 100 µM in test [4]; greater than 100 µM in [5]; 94 µM in test [6]. Further, the inhibitory constant (Ki) in test [7] is greater than 100 µM.
On to `C[N+]1(C)CCC[C@H]1COC(N)=O`, for which the Ki in [1] is 1.06 µM; in test [2], greater than 100 µM; in [3], greater than 100 µM; in test [4], greater than 100 µM; in test [5] it was greater than 100 µM; in [6], 1.8 µM. For the same compound, in test [7], the Ki is greater than 100 µM.
Consider `C[N+](C)(C)CCOC(N)=O` [CARBAMOYLCHOLINE], for which the Ki in test [8] worked out at 66 µM.
Turning to `CN(C)C(=O)OCC[N+](C)(C)C`, the Ki turned out to be 1.2 µM in test [9] and 0.02 µM in test [10].
Take `CN1CCC[C@H]1[C@@H]1COC(=O)N1`: the inhibition constant Ki in [1] is 9 µM; in [2], greater than 100 µM; in test [3], greater than 100 µM; in test [4], greater than 100 µM; in [5], greater than 100 µM; in [6], 64 µM. Also, the Ki in [7] is greater than 100 µM.
In the case of `CNC(=O)OCC[N+](C)(C)C`, the Ki in test [9] was determined as 0.15 µM; in test [10], 0.023 µM; in test [8], 44 µM.
On to `CN(C)CCOC(=O)N(C)C` [2-(DIMETHYLAMINO)ETHYL DIMETHYLCARBAMATE], for which the Ki in test [9] is 18 µM; in test [10] it was 5.7 µM.
Take `CN1C[C@H](C[N+](C)(C)C)OC1=O`: the Ki in test [1] was 3.1 µM; in test [2], greater than 100 µM; in [3], greater than 100 µM; in [4], greater than 100 µM; in test [5], greater than 100 µM; in [6], 18.6 µM. For the same compound, the Ki in test [7] is greater than 100 µM.
Take `CN1CCC[C@H]1[C@H]1COC(=O)N1`: the Ki in [1] was 14 µM; in [2], greater than 100 µM; in test [3], greater than 100 µM; in test [4], greater than 100 µM; in test [5], greater than 100 µM; in test [6], 50 µM. The Ki in test [7] was greater than 100 µM.
On to `C[N+](C)(C)C[C@H]1CNC(=O)O1`, for which the inhibition constant (Ki) in [1] is 0.396 µM; in [2], greater than 100 µM; in test [3], greater than 100 µM; in test [4] it was greater than 100 µM; in [5], greater than 100 µM; in [6], 47 µM. The same compound had a Ki in test [7] greater than 100 µM.
With `CC(C[N+](C)(C)C)OC(N)=O` (stereo not drawn) [BETHANECHOL], the Ki in test [9] came out at 0.097 µM.
On to `CN1CCC[C@H]1COC(N)=O`, for which the Ki in [1] was 0.693 µM; in test [2], greater than 100 µM; in test [3] it was greater than 100 µM; in test [4], greater than 100 µM; in [5], greater than 100 µM; in test [6], 78 µM. The same compound showed a Ki in test [7] greater than 100 µM.
